Results: ChEMBL document CHEMBL6153029, “Next-generation cancer therapeutics: PROTACs and the role of heterocyclic warheads in targeting resistance” (Eur J Med Chem, 2025)
One block for each compound: values may come before it.

What was measured:
[1] = biological target: Platelet-derived growth factor receptor beta (Homo sapiens) (UniProt P09619); test: Inhibition of PDGFRbeta (unknown origin) measured for 48 hrs at 10 uM relative to control
CWR22R = test: Antiproliferative activity against human 22Rv1 cells; assay type: functional, cell-based
LNCaP [2] = test: Antiproliferative activity against human LNCaP cells; assay type: functional, cell-based
MOLM-13 = test: Antiproliferative activity against human MOLM-13 cells; assay type: functional, cell-based
Hs-578T = test: Antiproliferative activity against human Hs-578T cells; assay type: functional, cell-based
LNCaP C4-2B = test: Antiproliferative activity against human LNCaP C4-2B cells; assay type: functional, cell-based
MV4-11 = test: Antiproliferative activity against human MV4-11 cells; assay type: functional, cell-based
[3] = biological target: T1, Bromodomain-containing protein 4 (Homo sapiens, UniProt O60885); test: Binding affinity to BRD4 (unknown origin) assessed as dissociation constant
[4] = biological target: T2, Protein cereblon/Mitogen-activated protein kinase 3/Mitogen-activated protein kinase 1 (Homo sapiens, UniProt P27361+P28482+Q96SW2); test: PROTAC activity at CRBN/ERK1/2 in human Calu-6 cells assessed as induction of ERK1/2 degradation incubated for 48 hrs by Western blot analysis; assay type: cell-based
HCT-116 = test: Antiproliferative activity against human HCT-116 cells assessed as reduction in cell viability incubated for 72 hrs by CCK-8 assay; assay type: functional, cell-based; settings: HCT-116, 72 h
[5] = biological target: T2, Protein cereblon/Mitogen-activated protein kinase 3/Mitogen-activated protein kinase 1; test: PROTAC activity at CRBN/ERK1/2 in human HCT-116 cells assessed as induction of ERK1/2 degradation incubated for 48 hrs by Western blot analysis; assay type: cell-based
A-375 = test: Antiproliferative activity against human A-375 cells assessed as reduction in cell viability incubated for 72 hrs by CCK-8 assay; assay type: functional, cell-based; settings: A-375, 72 h
Calu-6 = test: Antiproliferative activity against human Calu-6 cells assessed as reduction in cell viability incubated for 72 hrs by CCK-8 assay; assay type: functional, cell-based; settings: Calu-6, 72 h
MCF7 [6] = test: Antiproliferative activity against human MCF7 cells
T47D = test: Antiproliferative activity against human T47D cells
[7] = biological target: T1, Bromodomain-containing protein 4; test: Inhibition of BRD4 (unknown origin)
MCF7 [8] = test: Antiproliferative activity against human MCF7 cells assessed as reduction in cell viability at 25 uM incubated for 72 hrs by resazurin based assay relative to control; assay type: functional
MCF7 [9] = test: Antiproliferative activity against human MCF7 cells assessed as reduction in cell viability incubated for 48 hrs by MTT assay; assay type: functional, cell-based; settings: MCF7, 48 h
[10] = biological target: T1, Bromodomain-containing protein 4; test: Inhibition of BRD4 (unknown origin) at 1 micromol/L relative to control; settings: dose 1.0 µmol/L
HL-60 = test: Antiproliferative activity against human HL-60 cells; assay type: functional, cell-based
[11] = biological target: T1, Bromodomain-containing protein 4; test: Inhibition of BRD4 (unknown origin) at 0.01 umol/L relative to control; settings: dose 0.01 µmol/L
[12] = biological target: T3, Protein cereblon/Bromodomain-containing protein 4 (Homo sapiens, UniProt O60885+Q96SW2); test: PROTAC activity at CRBN/BRD4 in human MV4-11 cells assessed as induction of degradation of BRD4 by measuring maximal degradation at 10 uM incubated after 24 hrs by Western blot analysis relative to control; assay type: cell-based
[13] = biological target: T3, Protein cereblon/Bromodomain-containing protein 4; test: PROTAC activity at CRBN/BRD4 in human MV4-11 cells assessed as induction of degradation of BRD4 measured after 24 hrs by Western blot analysis; assay type: cell-based
THP-1 = test: Antiproliferative activity against human THP-1 cells; assay type: functional, cell-based
[14] = biological target: Protein cereblon/Androgen receptor (Homo sapiens) (UniProt P10275+Q96SW2); test: PROTAC activity at AR/CRBN in human LNCaP cells assessed as protein degradation measured by measuring maximal degradation at 5 uM incubated for 24 hrs by Western blot analysis relative to control; assay type: cell-based
LNCaP [15] = test: Antiproliferative activity against human LNCAP cells assessed as reduction in cell viability incubated for 24 hrs by MTT assay; assay type: functional, cell-based
U-87 MG = test: Antiproliferative activity against human U87 cells; assay type: functional, cell-based, U-87MG ATCC
[16] = biological target: von Hippel-Lindau disease tumor suppressor/Platelet-derived growth factor receptor beta (Homo sapiens, UniProt P09619+P40337); test: PROTAC activity at VHL/PDGFRbeta in human U87 cells assessed as induction of protein degradation by Western blot analysis; assay type: cell-based
von Hippel-Lindau disease tumor suppressor/Platelet-derived growth factor receptor beta, sequence (P09619 whole entry): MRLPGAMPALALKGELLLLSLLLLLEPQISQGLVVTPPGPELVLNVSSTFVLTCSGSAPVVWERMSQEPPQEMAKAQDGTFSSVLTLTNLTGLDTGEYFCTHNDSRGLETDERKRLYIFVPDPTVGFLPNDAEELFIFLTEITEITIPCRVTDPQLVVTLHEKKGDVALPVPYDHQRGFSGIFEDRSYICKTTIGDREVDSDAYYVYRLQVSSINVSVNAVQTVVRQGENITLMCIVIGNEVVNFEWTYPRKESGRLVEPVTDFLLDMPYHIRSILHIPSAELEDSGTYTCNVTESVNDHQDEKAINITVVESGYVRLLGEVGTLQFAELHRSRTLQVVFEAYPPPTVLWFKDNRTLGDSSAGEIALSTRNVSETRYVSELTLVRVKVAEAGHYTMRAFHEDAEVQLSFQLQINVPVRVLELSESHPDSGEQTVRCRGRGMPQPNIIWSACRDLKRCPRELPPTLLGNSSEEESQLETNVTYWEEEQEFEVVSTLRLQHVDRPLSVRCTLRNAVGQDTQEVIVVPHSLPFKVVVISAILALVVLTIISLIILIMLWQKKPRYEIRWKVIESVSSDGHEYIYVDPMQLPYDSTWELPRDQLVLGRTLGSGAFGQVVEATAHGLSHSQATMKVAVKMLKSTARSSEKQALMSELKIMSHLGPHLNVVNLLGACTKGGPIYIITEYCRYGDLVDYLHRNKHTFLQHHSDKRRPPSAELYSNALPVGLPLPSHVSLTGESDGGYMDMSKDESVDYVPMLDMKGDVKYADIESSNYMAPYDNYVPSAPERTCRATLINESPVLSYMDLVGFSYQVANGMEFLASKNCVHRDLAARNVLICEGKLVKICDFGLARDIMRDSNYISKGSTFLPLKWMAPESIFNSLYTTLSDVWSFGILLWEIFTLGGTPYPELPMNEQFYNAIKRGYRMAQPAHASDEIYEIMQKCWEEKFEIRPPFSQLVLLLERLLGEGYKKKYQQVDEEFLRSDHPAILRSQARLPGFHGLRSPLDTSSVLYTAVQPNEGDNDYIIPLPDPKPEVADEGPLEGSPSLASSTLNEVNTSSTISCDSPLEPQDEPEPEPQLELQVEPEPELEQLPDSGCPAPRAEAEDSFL
von Hippel-Lindau disease tumor suppressor/Platelet-derived growth factor receptor beta, sequence (P40337 whole entry): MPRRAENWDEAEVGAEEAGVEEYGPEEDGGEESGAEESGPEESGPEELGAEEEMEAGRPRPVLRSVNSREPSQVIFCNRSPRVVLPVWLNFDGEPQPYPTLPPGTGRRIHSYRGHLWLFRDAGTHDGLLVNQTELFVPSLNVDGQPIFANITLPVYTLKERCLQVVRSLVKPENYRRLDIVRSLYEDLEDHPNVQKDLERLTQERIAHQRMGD

T3 sequence (Q96SW2 whole entry, looked up, other chains not shown): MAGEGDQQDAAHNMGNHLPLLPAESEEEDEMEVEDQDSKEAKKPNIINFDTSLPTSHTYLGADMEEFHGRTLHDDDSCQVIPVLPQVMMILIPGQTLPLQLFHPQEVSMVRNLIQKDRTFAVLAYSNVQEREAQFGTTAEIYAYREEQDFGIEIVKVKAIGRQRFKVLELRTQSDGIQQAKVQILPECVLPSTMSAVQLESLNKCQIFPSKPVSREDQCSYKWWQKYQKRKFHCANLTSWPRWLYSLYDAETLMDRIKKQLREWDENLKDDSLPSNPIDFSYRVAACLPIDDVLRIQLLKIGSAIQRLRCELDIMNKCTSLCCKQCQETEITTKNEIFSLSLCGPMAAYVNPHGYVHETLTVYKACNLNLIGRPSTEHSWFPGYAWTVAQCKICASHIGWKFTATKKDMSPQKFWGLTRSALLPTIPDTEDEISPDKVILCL
T2 sequence (P27361 whole entry): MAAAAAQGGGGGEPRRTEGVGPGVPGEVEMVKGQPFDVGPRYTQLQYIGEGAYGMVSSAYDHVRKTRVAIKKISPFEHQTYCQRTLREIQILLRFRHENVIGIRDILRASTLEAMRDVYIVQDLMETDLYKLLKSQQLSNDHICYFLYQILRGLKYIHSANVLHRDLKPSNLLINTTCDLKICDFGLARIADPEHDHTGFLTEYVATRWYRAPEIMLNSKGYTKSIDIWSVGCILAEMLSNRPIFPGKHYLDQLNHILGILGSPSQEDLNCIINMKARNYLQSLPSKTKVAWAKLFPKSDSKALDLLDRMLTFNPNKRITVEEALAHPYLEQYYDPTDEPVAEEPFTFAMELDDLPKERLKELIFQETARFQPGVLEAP
T2 sequence (P28482 whole entry): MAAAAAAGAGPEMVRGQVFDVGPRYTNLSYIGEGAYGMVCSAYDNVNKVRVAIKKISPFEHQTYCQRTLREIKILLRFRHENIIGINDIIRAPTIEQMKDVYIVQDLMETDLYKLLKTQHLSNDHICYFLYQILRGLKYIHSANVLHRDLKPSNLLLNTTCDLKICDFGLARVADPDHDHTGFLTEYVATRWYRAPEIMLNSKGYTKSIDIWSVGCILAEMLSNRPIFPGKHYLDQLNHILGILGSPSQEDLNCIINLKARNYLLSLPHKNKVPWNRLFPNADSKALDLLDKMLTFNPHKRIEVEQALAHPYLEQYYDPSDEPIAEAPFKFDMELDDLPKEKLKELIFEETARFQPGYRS
T2 sequence (Q96SW2 whole entry): as the sequence (Q96SW2 whole entry, looked up, other chains not shown) above
Protein cereblon/Androgen receptor (Homo sapiens), sequence (P10275 whole entry, looked up): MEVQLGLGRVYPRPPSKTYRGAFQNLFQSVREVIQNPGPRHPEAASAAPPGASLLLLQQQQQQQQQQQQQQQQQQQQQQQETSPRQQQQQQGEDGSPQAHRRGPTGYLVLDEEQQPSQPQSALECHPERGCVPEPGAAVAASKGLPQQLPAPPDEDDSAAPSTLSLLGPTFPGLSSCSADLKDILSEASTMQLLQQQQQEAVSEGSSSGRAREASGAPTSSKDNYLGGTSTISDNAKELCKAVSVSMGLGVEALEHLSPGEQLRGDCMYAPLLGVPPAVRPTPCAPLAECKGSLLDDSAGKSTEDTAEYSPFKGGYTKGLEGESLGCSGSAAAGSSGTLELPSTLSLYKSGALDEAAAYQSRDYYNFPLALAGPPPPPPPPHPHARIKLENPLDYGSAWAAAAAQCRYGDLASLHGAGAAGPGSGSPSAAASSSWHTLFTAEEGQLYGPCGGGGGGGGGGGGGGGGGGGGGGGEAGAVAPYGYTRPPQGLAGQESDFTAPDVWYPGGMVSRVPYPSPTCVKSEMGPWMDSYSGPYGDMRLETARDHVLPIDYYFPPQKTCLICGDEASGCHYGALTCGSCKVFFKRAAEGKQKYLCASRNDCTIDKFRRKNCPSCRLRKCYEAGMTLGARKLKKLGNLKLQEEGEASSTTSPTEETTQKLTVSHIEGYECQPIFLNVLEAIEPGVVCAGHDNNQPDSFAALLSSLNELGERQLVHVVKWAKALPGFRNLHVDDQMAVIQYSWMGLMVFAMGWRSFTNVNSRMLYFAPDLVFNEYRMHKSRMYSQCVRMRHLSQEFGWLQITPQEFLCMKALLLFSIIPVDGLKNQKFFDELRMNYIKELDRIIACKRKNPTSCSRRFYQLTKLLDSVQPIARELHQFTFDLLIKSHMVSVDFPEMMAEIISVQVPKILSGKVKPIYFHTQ
Protein cereblon/Androgen receptor (Homo sapiens), sequence (Q96SW2 whole entry, looked up): as the sequence (Q96SW2 whole entry, looked up, other chains not shown) above
Platelet-derived growth factor receptor beta (Homo sapiens), sequence (P09619 whole entry): as the sequence (P09619 whole entry) above

inhibition [1]: > 70%
SMILES: O=C1CCC(N2Cc3c(NC(=O)CCCNC(=O)c4cc(Oc5ccc(NC(=O)Nc6ccc(Cl)c(C(F)(F)F)c6)cc5)ccn4)cccc3C2=O)C(=O)N1 (centres undefined)

IC50 (MCF7 [6]): 28.9 nM
IC50 (T47D): 41.7 nM
SMILES: Nc1nc(NC2CCC(C#Cc3ccc(C(=O)Nc4ccc5c(c4)CN(C4CCC(=O)NC4=O)C5=O)cc3)CC2)sc1C(=O)c1ccccc1[N+](=O)[O-] (centres undefined)

IC50 (MCF7 [9]): 87 nM
SMILES: Nc1nc2cc(-c3nn(Cc4cn(CCCCCC(=O)Nc5cccc6c5C(=O)N(C5CCC(=O)NC5=O)C6=O)nn4)c4ncnc(N)c34)ccc2o1 (centres undefined)
Activity (MCF7 [8]): 90%

inhibition [10]: 92.3%
IC50 (HL-60): 45.6 nM
inhibition [11]: 61.1%
Emax [12]: 95%
DC50 [13]: 0.75 nM
IC50 (MV4-11): 0.4 nM
IC50 (THP-1): 22.9 nM
SMILES: Cc1cc(-c2cc(NC(=O)CCC(=O)NCCOCCOCCc3ccc4c(c3)C(=O)N(C3CCC(=O)NC3=O)C4=O)ccc2Oc2ccccc2)n2cc[nH]c(=O)c12 (centres undefined)

IC50 (U-87 MG): > 100000 nM
DC50 [16]: 257 nM
SMILES: Cc1cccc(NC(=O)Nc2ccc(-c3cccc4c3c(N)nn4C(=O)CCCNC(=O)C3CC4CC3c3c4cnnc3-c3ccc(NC(=O)CCC(=O)N[C@H](C(=O)N4C[C@H](O)C[C@H]4C(=O)NCc4ccc(-c5scnc5C)cc4)C(C)(C)C)cc3)cc2)c1F (some centres undefined)

The next lines start with the compound.

SMILES: COc1ccc(Br)cc1S(=O)(=O)Nc1cc2c(C)noc2cc1OCCOCCOCCOCCOCCOCCOc1cc2onc(C)c2cc1NS(=O)(=O)c1cc(Br)ccc1OC
IC50 (CWR22R): 900 nM
IC50 (LNCaP [2]): 525 nM
IC50 (MOLM-13): 450 nM
IC50 (Hs-578T): 1360 nM
IC50 (LNCaP C4-2B): 930 nM
IC50 (MV4-11): 450 nM
Kd [3]: 741 nM

SMILES: Cc1cccc(CN2C(=O)c3cc(-c4nc(Nc5ccnc(C#CCCN(C)C)c5)ncc4C)cn3C[C@H]2C)n1
DC50 [4]: 85 nM
IC50 (HCT-116): 2100 nM
DC50 [5]: 102 nM
IC50 (A-375): > 30000 nM
IC50 (Calu-6): 15900 nM

SMILES: CCS(=O)(=O)Nc1ccc(Oc2ccc(F)cc2F)c(-c2cn(C)c(=O)c3[nH]ccc23)c1 [MIVEBRESIB]
IC50 [7]: 2.6 nM

SMILES: CC1(C)C(=O)N(c2ccc(C#N)c(C(F)(F)F)c2)C(=S)N1CCCCCCCCC(=O)N1CCN(CCCCCCCCCCCCC(=O)NC23CC4CC(CC(C4)C2)C3)CC1
Emax [14]: 57%
IC50 (LNCaP [15]): 4770 nM
